According to article PMC8486263 (RSC Advances, 2020):
One block for each compound: values may come before it.

What was measured:
in vitro = conditions: African green monkey
Procedure: These assays were performed in human PBM, T lymphoblast CEM-CCRF (CEM), African green monkey kidney (Vero) or human liver (HepG2) cells. Results represent means from triplicate wells.
These were performed in […] (PBM), T lymphoblast CEM-CCRF (CEM), African green monkey kidney (Vero) or human liver (HepG2) cells via MTT assay using the CellTiter 96®. Non-Radioactive Cell Proliferation (Promega) kit as previously described.[23c] Cytotoxicity was expressed as the concentration of test compounds that inhibited cell proliferation by 50% (IC50) and calculated using the Chou and Talalay method.[25]

HBV = assay: Antiviral assay against HBV in HepAD38 cells, real-time PCR for HBV DNA; type: cell-based; conditions: Hepatitis B virus, 168 h
Procedure: HepAD38 cells[24] were seeded at 50 000 cells per well in collagen-coated 96-well plates. Test compounds or 3TC (control) were added to HepAD38 cells to a final concentration of 10 μM. Real-time PCR for HBV DNA lasted 7 days. On day 7, total DNA was purified from supernatant using commercially available kit (DNeasy 96 Blood & Tissue kit, Qiagen). The HBV DNA was amplified in a real-time PCR assay using LightCycler 480 (Roche) as described elsewhere.[23c] All samples were tested in triplicate. Analysis: the concentration of compound that inhibited HBV DNA replication by 50% (EC50) was determined by linear regression.

HIV-1 (strain LAI) = assay: microbe, parasite or virus in culture; type: cell-based; conditions: Human immunodeficiency virus 1, PBMC, 144 h; HIV-1 LAI, MOI 0.1, PHA/IL-2 stimulated human PBM cells, 6 days; read-out: anti-HIV-1 EC50
Procedure: The assay was performed as described previously,[23a,b] with some modifications described elsewhere.[23c] […] Supernatants were harvested, and HIV-1 RT was quantified. Median effective concentrations (EC50) were determined using described method.[23d]

Structure (SMILES): C[C@@H]1C[C@@H]([C@H](O)CC2CC(=O)NC(=O)C2)C(=O)[C@@H](C)C1 [cycloheximide]
- IC50 (in vitro): 500 nM

Structure (SMILES): Nc1ccn([C@@H]2CS[C@H](CO)O2)c(=O)n1 [Lamivudine]
- EC50 (HBV; 7 days, HBV DNA in supernatant, read-out: anti-HBV EC50): < 10000 nM
- inhibition at 10 µM (HBV; at 10 μM, day 7): 97%

- EC50 (HIV-1 (strain LAI)): 6 nM
Structure (SMILES): Cc1cn([C@H]2C[C@H](N=[N+]=[N-])[C@@H](CO)O2)c(=O)[nH]c1=O [AZT, 3′-azido-3′-deoxythymidine]
